Measured values published in patent US20230348518A1 (priority 2020, published 2023).
Entries after “also recorded” stand apart in the source; their conditions may differ.

Tests used:
HeLa cells = conditions: supra-physiologic doses; cited from earlier work
human CMG helicase [1] = test system: T1, human CMG helicase; assay: radioactive DNA fork unwinding helicase assay; assay type: biochemical; conditions: for inhibition of CMG activity in fork unwinding assay: 0.5 mM, 30 minutes at 37 degrees Celsius, compared to Novobiocin; for inhibition of human CMG helicase in fork unwinding assay: in vitro, FIG. 2
T1 construct: made in house; host or cells: insect cells (Sf9), baculoviruses
Text: (§1) We have focused on the enzymatic ATP hydrolysis steps used by the core MCM hexamers of the CMG helicase to identify ATP competitive inhibitors of […] and/or hydrolysis within one or more of the MCM hexamer pairs. To do this, we established a means to express and purify the human CMG helicase in our lab, and then we verified the isolated CMG is active in DNA unwinding assays. We then set up a novel assay to quantitatively measure ATP hydrolysis (ADP production) by the human CMG. This assay used reagents that are sensitive enough to read small changes in ADP production from our functioning CMG helicase in an in vitro biochemical enzyme assay. This assay relies on reading fluorescent-polarization (FP) changes from an antibody that binds to an ADP-fluorophore molecule that is displaced when the CMG produces ADP on its own. The results are obtained using a Perkin-Elmer Envision II FP plate reader. This approach is referred to as our primary screening assay. Our secondary screening assay, which is lower through-put, uses a traditional radioactive-based DNA fork unwinding method of analysis to verify whether a given potential CMGi is truly capable of inhibiting CMG elongation along DNA and subsequent fork unwinding.
The human CMG helicase assay was performed with purified CMG before glycerol gradient centrifugation. Novobiocin (Compound A), Clorobiocin (Compound D), and Coumermycin A1 (Compound B) were incubated with 2 μL human CMG and 1 μL ^32P-labeled DNA forks for 30 minutes at 37 degrees Celsius. The reactions were stopped with 6× loading buffer, separated in 10% PAGE, and dried on filter paper followed by autoradiography.
(§2) For feasibility of this example, it is shown that sufficient quantities of enzymatically active hCMG can be purified using an established approach (FIGS. 9A-9D). This method of hCMG purification was previously devised by the Hurwitz lab and involves the co-expression of all 11 subunits of the hCMG using baculoviruses and insect cells, followed by a five-step chromatography-based enrichment scheme. The steps of the purification are outlined in FIG. 9A, with Westerns on isolated fractions used to assess the completeness of hCMG subunits and enzyme recovered after the final glycerol gradient step (FIG. 9B). […] Activity is measured using a classical fork-unwinding helicase assay that relies on radioactive forks being separated, and ssDNA being recognized and quantifiable in gels using PhosphorImager analyses (FIG. 9D). SV40-derived Tag helicase was also purified as a positive control, and our active hCMG is close in forkunwinding output to that of TAg. […] Given that multiple fractions produce active hCMG, this provides ample quantities of hCMG to design, calibrate, and test a workflow for hCMG chemical screening. […]

human CMG (hCMG) = test system: T2, human CMG (hCMG); assay: human CMG biochemical assays (primary and secondary), format not specified; conditions: for inhibition of the human CMG in biochemical assays (primary and secondary): in vitro
T2 construct: made in house; host or cells: insect cells (Sf9), baculoviruses
Text: as §1

human CMG helicase [2] = test system: T1, human CMG helicase; assay: fluorescent-polarization (FP) assay measuring ADP production; assay type: biochemical; conditions: for CMG activity inhibited: 1 mM, fluorescence-polarization assay; for inhibition of CMG helicase in fluorescent-polarization assay: FIG. 3
Text: as §1
The components for the assay used for ATP hydrolysis measurements of the hCMG are produced by BellBrook Labs, and the kit is called the ADP2 Transcreener™ FP Assay. […] As shown in FIGS. 10A-10B, the hCMG is incubated with ATP, buffer, and non-radioactive fork substrates for a determined length of time to allow hCMG activity to occur (or not, if an inhibitor is present). This produces ADP, which is recognized by the FP assay when free ADP competes an ADP-fluor off of a patented antibody that binds ADP with high affinity. […] But this polarity is reduced in a quantitative manner depending on the presence of free ADP (produced by the hCMG here), once the ADP-fluor is released from the antibody. Noteworthy, the fluor (Alexa 633) used here is in the far-red spectrum, which reduces problems during screening that can (likely) occur when chemicals themselves emit red or green wavelengths that interfere with plate reader steps (can give false positives). The system is very sensitive to even small changes in ADP production, being able to sense 0.5-2% changes quite easily (verified in our hands, using ADP-ATP standard curves). Low substrate conversion to ADP can be detected with a Z′-factor≥0.7 at 2.5% ATP conversion. The latter is achieved with a read time of less than 5 minutes. Signal stability is greater than 24 hr, and ADP-FP reagents are stable at RT for 8 hrs and tolerate 1% DMSO. Light output is also stable in the presence of up to 10% DMSO, DMF, ethanol, acetonitrile, or methanol solvents. ATP starting concentrations can be within the range of 0.1-1000 μM, and our hCMG enzyme requires 500 μM ATP for functioning near its published Km, which has been verified applies to the hCMG preparations (not shown).
Since hCMG is purified, feasibility testing of the FP assay was performed with the hCMG (FIGS. 10A-10B). Cubes, filters, and mirrors for dual-FP analysis were obtained using PE Envision II equipment, and such items were verified as functional. A window for change in millipolarizations (AmP window) is established with reagents alone, and the amount of patented antibody needed to achieve an optimal window is pre-determined in pilot titration assays using ATP at the required 500 μM level. […] Using formulas BellBrook Labs supplies for their reagents, it was also calculated that the assay was working with a Z′-factor of >0.6 (calculations not shown). Optimal ΔmP can be as high as 80% change (EC80). Achieving this will also increase our Z′-factor to 0.8-0.9.

[3] = test system: RPA loading onto DNA/chromatin in A549 NSCLC cells; assay: RPA32 western blot of total cell extracts and chromatin-bound fractions; assay type: cell-based; conditions: A549 NSCLC cells, 0.1, 10, or 25 μM, 48 hours
Text: Cells were harvested and protein from each group isolated into total cell extracts (TCE) or chromatin-bound fractions. Standard SDS-PAGE followed by western blot was used to separate proteins and probe for RPA32 presence in TCE and bound chromatin. Actin serves as a loading control. […] There is also some toxicity of Coumermycin A1 (Compound B).

[4] = target: HPV18 E1 helicase (helicase domain only) (Human papillomavirus type 18, UniProt P06789); assay: HPV18 E1 helicase inhibition; assay type: biochemical
[5] = test system: DNA damage / Parp cleavage in tumor cells; assay: DNA damage and Parp cleavage in cells; assay type: cell-based; conditions: tumor cells versus Hacat
multiple tumor types = assay: sensitivity of multiple tumor types; assay type: cell-based; conditions: low doses, FIG. 17
[6] = target: T3, Simian virus 40 (SV40) large-T-antigen (Tag) DNA helicase (Simian virus 40, UniProt P03070); assay: classic fork unwinding assay; assay type: biochemical; conditions: in vitro, FIG. 2 and titration FIG. 11
T3 construct: made in house
Text: as §2, with “TAg. Each prep of hCMG thus obtained is giving us -5-10 fmol of hCMG per uL of glycerol gradient fraction, with fractions totaling 150-170 uL (3-4 fractions obtained with obvious hCMG; FIG. 9B). Only 1 uL hCMG is required to easily see activity using this method (FIG. 9D).” for “TAg.”

[7] = test system: Hacat non-tumor skin cells; assay: sensitivity of non-tumor Hacat cells; assay type: cell-based; conditions: FIGS. 17 and 19
[8] = test system: MCM assembly and activity; assay: MCM assembly and activity in cells; assay type: cell-based; conditions: Hacat cells and OS tumor cells (143b)
OS tumor cells = assay: inhibition of osteosarcoma tumor cells; assay type: cell-based; conditions: FIGS. 14A-14F
HPV16 E1 helicase [9] = target: HPV16 E1 helicase (Human papillomavirus type 16, UniProt P03114); assay: HPV16 E1 helicase inhibition; assay type: biochemical; conditions: full-length
HPV16 E1 helicase [10] = assay: HPV16 E1 helicase inhibition; assay type: biochemical; conditions: for inhibition of E1 helicase from HPV16: FIG. 12, construct not stated
OS tumor = OS tumor growth in mice; assay type: in vivo
[11] = target: HPV31 E1 helicase (full-length) (Human papillomavirus 31, UniProt P17382); assay: HPV31 E1 helicase inhibition; assay type: biochemical
Chain of HPV31 E1 helicase (full-length) (P17382 whole entry): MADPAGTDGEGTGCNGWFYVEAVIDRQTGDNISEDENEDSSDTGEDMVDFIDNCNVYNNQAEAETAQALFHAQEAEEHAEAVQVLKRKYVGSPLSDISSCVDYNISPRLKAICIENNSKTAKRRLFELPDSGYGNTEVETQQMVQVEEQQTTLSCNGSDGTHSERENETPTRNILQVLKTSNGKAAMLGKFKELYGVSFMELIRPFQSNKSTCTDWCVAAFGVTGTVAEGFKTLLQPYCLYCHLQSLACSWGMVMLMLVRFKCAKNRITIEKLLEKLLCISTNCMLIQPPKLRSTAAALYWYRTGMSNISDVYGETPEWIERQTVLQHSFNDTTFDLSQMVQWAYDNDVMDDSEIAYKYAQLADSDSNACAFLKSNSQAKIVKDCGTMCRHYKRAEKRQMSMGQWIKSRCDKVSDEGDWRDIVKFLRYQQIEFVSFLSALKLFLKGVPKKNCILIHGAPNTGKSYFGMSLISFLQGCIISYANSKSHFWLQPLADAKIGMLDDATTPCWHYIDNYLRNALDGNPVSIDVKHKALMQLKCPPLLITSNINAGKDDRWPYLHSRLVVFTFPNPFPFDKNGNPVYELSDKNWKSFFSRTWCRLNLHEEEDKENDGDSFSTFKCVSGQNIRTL

T3 sequence (P03070 whole entry): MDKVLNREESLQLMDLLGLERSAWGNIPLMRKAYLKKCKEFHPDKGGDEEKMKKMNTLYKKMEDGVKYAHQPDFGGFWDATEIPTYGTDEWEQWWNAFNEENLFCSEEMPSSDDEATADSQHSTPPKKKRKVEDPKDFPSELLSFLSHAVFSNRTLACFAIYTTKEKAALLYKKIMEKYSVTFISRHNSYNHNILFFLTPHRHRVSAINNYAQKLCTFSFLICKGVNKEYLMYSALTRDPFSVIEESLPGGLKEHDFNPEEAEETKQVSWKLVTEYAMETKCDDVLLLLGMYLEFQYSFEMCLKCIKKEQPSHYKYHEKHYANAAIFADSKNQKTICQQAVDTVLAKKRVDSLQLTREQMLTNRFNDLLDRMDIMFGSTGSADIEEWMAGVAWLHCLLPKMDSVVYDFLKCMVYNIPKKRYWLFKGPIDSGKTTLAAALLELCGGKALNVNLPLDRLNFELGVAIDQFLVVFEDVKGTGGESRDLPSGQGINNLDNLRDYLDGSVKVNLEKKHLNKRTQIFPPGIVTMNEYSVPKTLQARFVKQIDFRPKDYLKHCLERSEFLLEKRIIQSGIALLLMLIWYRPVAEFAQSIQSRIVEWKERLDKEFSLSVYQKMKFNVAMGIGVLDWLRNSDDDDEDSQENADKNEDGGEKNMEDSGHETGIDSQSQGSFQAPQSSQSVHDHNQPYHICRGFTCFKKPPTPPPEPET
Chain of HPV16 E1 helicase (Human papillomavirus type 16, UniProt P03114) (P03114 whole entry): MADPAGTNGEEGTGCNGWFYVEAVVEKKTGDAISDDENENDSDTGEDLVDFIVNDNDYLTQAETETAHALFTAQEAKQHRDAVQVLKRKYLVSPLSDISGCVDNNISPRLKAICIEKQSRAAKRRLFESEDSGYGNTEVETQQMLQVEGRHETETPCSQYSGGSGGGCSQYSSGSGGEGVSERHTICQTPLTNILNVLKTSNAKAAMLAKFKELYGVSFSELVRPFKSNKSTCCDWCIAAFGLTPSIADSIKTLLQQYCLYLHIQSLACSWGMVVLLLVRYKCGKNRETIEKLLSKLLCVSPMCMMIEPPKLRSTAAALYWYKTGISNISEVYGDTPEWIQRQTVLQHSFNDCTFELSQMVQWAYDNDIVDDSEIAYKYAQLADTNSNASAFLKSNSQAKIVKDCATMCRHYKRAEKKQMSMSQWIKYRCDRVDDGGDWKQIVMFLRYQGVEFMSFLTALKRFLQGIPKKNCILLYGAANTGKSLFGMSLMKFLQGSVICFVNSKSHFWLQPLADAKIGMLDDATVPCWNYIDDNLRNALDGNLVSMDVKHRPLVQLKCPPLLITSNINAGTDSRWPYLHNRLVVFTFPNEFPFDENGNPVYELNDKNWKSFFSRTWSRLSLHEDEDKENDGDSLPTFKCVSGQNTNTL
Chain of HPV18 E1 helicase (helicase domain only) (P06789 458-608 limits assumed): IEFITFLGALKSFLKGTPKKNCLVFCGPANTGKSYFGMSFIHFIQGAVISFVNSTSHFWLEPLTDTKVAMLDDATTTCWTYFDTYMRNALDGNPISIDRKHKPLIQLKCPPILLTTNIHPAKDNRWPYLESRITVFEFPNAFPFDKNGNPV

SMILES: O=C(O)c1cn(C2CC2)c2cc(N3CCNCC3)c(F)cc2c1=O [ciprofloxacin]
- cell growth of HeLa cells (HeLa cells): stopped cell growth

SMILES: CO[C@@H]1[C@@H](OC(=O)c2ccc(C)[nH]2)[C@@H](O)[C@H](Oc2ccc3c(O)c(NC(=O)c4ccc(O)c(CC=C(C)C)c4)c(=O)oc3c2Cl)OC1(C)C [clorobiocin]
- inhibition of CMG activity in fork unwinding assay (human CMG helicase [1]): inhibit CMG activity
- inhibition of human CMG (hCMG), dose dependence (human CMG (hCMG); FIG. 24): inhibits human CMG (hCMG) in a dose-dependent manner
- inhibition of human CMG (hCMG) (human CMG (hCMG); direct comparison to novobiocin (500 uM), FIG. 25): inhibits human CMG (hCMG)
- inhibition of the human CMG in biochemical assays (primary and secondary) (human CMG (hCMG)): very effectively inhibit the human CMG helicase in vitro; also recorded: effectively inhibit the human CMG
- CMG activity inhibited (human CMG helicase [2]): 81.5%
- inhibition of CMG helicase in fluorescent-polarization assay (human CMG helicase [2]): inhibiting CMG helicase

SMILES: CO[C@@H]1[C@@H](OC(=O)c2ccc(C)[nH]2)[C@@H](O)[C@H](Oc2ccc3c(O)c(NC(=O)c4c[nH]c(C(=O)Nc5c(O)c6ccc(O[C@@H]7OC(C)(C)[C@H](OC)[C@@H](OC(=O)c8ccc(C)[nH]8)[C@H]7O)c(C)c6oc5=O)c4C)c(=O)oc3c2C)OC1(C)C [coumermycin-A1, coumermycin A1]
- toxicity [3]: some toxicity
- RPA loading onto DNA/chromatin (RPA32 in chromatin-bound fraction) ([3]; listed as Coumermycin A1): inhibits RPA loading onto DNA/chromatin
- RPA loading onto DNA/chromatin (RPA32 in chromatin-bound fraction) ([3]; listed as coumermycin A1): inhibiting RPA loading onto DNA/chromatin
- inhibition of HPV18 E1 helicase [4]: is inhibited
- inhibition of CMG activity in fork unwinding assay (human CMG helicase [1]): inhibit CMG activity
- inhibition of human CMG helicase in fork unwinding assay (human CMG helicase [1]): capable of being inhibited
- DNA damage leading to Parp cleavage [5]: causes DNA damage specifically in tumor cells
- sensitivity of multiple tumor types to CMG helicase inhibition (multiple tumor types): sensitive to low doses
- inhibition of SV40 Tag helicase in fork unwinding assay [6]: capable of being inhibited; also recorded: inhibiting SV40 Tag helicase
- sensitivity of Hacat non-tumor cells to CMG helicase inhibition [7]: far less sensitive
- inhibition of MCM assembly and activity [8]: inhibits MCM assembly and activity
- inhibition of OS tumor cells versus non-tumor cells (Hacat) (OS tumor cells): inhibits OS tumor cells with more specificity than non-tumor cells (Hacat)
- inhibition of HPV16 E1 helicase (HPV16 E1 helicase [9]): is inhibited
- inhibition of E1 helicase from HPV16 (HPV16 E1 helicase [10]): can be directly inhibited
- inhibition of HPV16 E1 helicase (HPV16 E1 helicase [10]; helicase domain only): is inhibited
- inhibition of the human CMG in biochemical assays (primary and secondary) (human CMG (hCMG)): effective CMGi
- OS tumor growth in mice (OS tumor; 12 day analysis): suppresses OS tumor growth in mice
- OS tumor growth in mice (OS tumor; 18 day analysis): suppresses OS tumor growth in mice
- inhibition of HPV31 E1 helicase [11]: is inhibited
- CMG activity inhibited (human CMG helicase [2]): 91.7%
- inhibition of CMG helicase in fluorescent-polarization assay (human CMG helicase [2]): inhibiting CMG helicase

SMILES: CO[C@@H]1[C@@H](OC(N)=O)[C@@H](O)[C@H](Oc2ccc3c(O)c(NC(=O)c4ccc(O)c(CC=C(C)C)c4)c(=O)oc3c2C)OC1(C)C [novobiocin]
- RPA loading onto DNA/chromatin (RPA32 in chromatin-bound fraction) [3]: does not inhibit RPA at all
- inhibition of human CMG helicase in fork unwinding assay (human CMG helicase [1]): not
- inhibition of SV40 Tag helicase in fork unwinding assay [6]: not
- inhibition of OS tumor cells versus non-tumor cells (Hacat) (OS tumor cells): does not inhibit any cells
- inhibition of E1 helicase from HPV16 (HPV16 E1 helicase [10]): can be directly inhibited
- inhibition of the human CMG in biochemical assays (primary and secondary) (human CMG (hCMG)): not to inhibit the human CMG at any level of exposure
- CMG activity inhibited (human CMG helicase [2]): 12.5%
- inhibition of CMG helicase in fluorescent-polarization assay (human CMG helicase [2]): does not
